Measurements as given in the supplement of paper PMC10307832.

Columns and labels:
Assay in all cases: relative viability (nuclei count vs DMSO), 5 days (fraction); higher = more cells survive
[1] = tested on: NCI-H1793
How it was run: (§1)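 Relative viability was taken as the ratio of nuclei in treated wells to nuclei in vehicle wells. Lung cancer cell lines in 1536-well plates received compounds by pin tool one day after seeding, either one drug alone or a fixed anchor-drug dose plus five library-drug doses (not always all listed) in √10 steps. Nuclei were counted on 4× images after 5 days of treatment, and values are medians of duplicate plates.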

[2] = tested on: NCI-H1944
How it was run: as §1

[3] = tested on: NCI-H1993
How it was run: as §1

[4] = tested on: NCI-H2023
How it was run: as §1

[5] = tested on: NCI-H2126
How it was run: as §1

[6] = tested on: NCI-H2228
How it was run: as §1

[7] = tested on: NCI-H23
How it was run: as §1

[8] = tested on: NCI-H2405
How it was run: as §1

[9] = tested on: NCI-H358
How it was run: as §1

[10] = tested on: NCI-H838
How it was run: as §1

[11] = tested on: SK-LU-1
How it was run: as §1

For Nc1ccn([C@@H]2O[C@H](CO)[C@@H](O)[C@@H]2O)c(=O)n1 [Cytarabine] + CC(=O)c1c(C)c2cnc(Nc3ccc(N4CCNCC4)cn3)nc2n(C2CCCC2)c1=O [Palbociclib] (partner 0.5 µM), the relative viability ([1]; first compound 0.005 µM) was 0.341, the relative viability ([1]; first compound 0.01581 µM) was 0.267 and the relative viability ([1]; first compound 0.05 µM) was 0.268. It also gave a relative viability ([1]; first compound 0.1581 µM) of 0.228, a relative viability ([1]; first compound 0.5 µM) of 0.262 and a relative viability ([2]; first compound 0.005 µM) of 0.283. It also gave a relative viability ([2]; first compound 0.01581 µM) of 0.248, a relative viability ([2]; first compound 0.05 µM) of 0.207 and a relative viability ([2]; first compound 0.1581 µM) of 0.205. For the same molecule, the relative viability ([2]; first compound 0.5 µM) was 0.16, the relative viability ([3]; first compound 0.005 µM) was 0.714 and the relative viability ([3]; first compound 0.01581 µM) was 0.489. The relative viability ([3]; first compound 0.05 µM) was 0.518, the relative viability ([3]; first compound 0.1581 µM) was 0.507 and the relative viability ([3]; first compound 0.5 µM) was 0.323. It also gave a relative viability ([4]; first compound 0.005 µM) of 0.378, a relative viability ([4]; first compound 0.01581 µM) of 0.221 and a relative viability ([4]; first compound 0.05 µM) of 0.129. For the same molecule, the relative viability ([4]; first compound 0.1581 µM) was 0.0971, the relative viability ([4]; first compound 0.5 µM) was 0.088 and the relative viability ([5]; first compound 0.005 µM) was 0.352. It also gave a relative viability ([5]; first compound 0.01581 µM) of 0.312, a relative viability ([5]; first compound 0.05 µM) of 0.298 and a relative viability ([5]; first compound 0.1581 µM) of 0.277. It also gave a relative viability ([5]; first compound 0.5 µM) of 0.261, a relative viability ([6]; first compound 0.005 µM) of 0.445 and a relative viability ([6]; first compound 0.01581 µM) of 0.343. For the same molecule, the relative viability ([6]; first compound 0.05 µM) was 0.215, the relative viability ([6]; first compound 0.1581 µM) was 0.131 and the relative viability ([6]; first compound 0.5 µM) was 0.116. The relative viability ([7]; first compound 0.005 µM) was 0.617, the relative viability ([7]; first compound 0.01581 µM) was 0.367 and the relative viability ([7]; first compound 0.05 µM) was 0.299. For the same molecule, the relative viability ([7]; first compound 0.1581 µM) was 0.193, the relative viability ([7]; first compound 0.5 µM) was 0.169 and the relative viability ([8]; first compound 0.005 µM) was 0.518. For the same molecule, the relative viability ([8]; first compound 0.01581 µM) was 0.449, the relative viability ([8]; first compound 0.05 µM) was 0.367 and the relative viability ([8]; first compound 0.1581 µM) was 0.275. The relative viability ([8]; first compound 0.5 µM) was 0.234, the relative viability ([9]; first compound 0.005 µM) was 0.126 and the relative viability ([9]; first compound 0.01581 µM) was 0.115. The relative viability ([9]; first compound 0.05 µM) was 0.0934, the relative viability ([9]; first compound 0.1581 µM) was 0.0712 and the relative viability ([9]; first compound 0.5 µM) was 0.0692. The relative viability ([10]; first compound 0.005 µM) was 0.228, the relative viability ([10]; first compound 0.01581 µM) was 0.244 and the relative viability ([10]; first compound 0.05 µM) was 0.209. For the same molecule, the relative viability ([10]; first compound 0.1581 µM) was 0.2, the relative viability ([10]; first compound 0.5 µM) was 0.149 and the relative viability ([11]; first compound 0.005 µM) was 0.371. The relative viability ([11]; first compound 0.01581 µM) was 0.419, the relative viability ([11]; first compound 0.05 µM) was 0.271 and the relative viability ([11]; first compound 0.1581 µM) was 0.307. For the same molecule, the relative viability ([11]; first compound 0.5 µM) was 0.284.
